# Target: T1, human FSH receptor (Homo sapiens, UniProt P23945)
# T1 construct: expressed in transfected cells; host or cells: CHO cells, cotransfected with a CRE/promotor firefly luciferase reporter
# T1 sequence (P23945 18-695): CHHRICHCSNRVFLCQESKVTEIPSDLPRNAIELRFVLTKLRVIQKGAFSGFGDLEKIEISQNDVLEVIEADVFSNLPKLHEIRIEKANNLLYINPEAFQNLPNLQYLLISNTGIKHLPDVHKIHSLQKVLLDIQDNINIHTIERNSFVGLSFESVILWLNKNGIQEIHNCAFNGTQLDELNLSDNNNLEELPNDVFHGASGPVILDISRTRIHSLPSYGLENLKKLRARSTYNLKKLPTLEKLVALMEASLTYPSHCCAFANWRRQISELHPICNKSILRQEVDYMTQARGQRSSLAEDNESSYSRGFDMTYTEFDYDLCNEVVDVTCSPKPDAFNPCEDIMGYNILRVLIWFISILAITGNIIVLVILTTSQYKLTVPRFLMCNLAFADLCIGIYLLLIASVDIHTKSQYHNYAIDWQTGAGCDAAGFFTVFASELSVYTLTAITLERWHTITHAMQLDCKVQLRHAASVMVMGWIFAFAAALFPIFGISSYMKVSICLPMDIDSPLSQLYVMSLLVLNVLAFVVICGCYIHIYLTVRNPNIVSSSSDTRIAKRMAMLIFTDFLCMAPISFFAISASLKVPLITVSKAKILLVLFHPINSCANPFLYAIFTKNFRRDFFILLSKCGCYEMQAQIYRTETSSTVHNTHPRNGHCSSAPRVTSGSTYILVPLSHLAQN
# Assay: Antagonistic activity at the human FSH receptor expressed in CHO cells (CRE-luciferase reporter)
# Format: cell-based
# Conditions: CHO cells stably transfected with human FSH receptor and CRE/firefly luciferase reporter; 4 hours incubation; read-out: pIC50 (negative logarithm of the IC50 value) (converted)
# Protocol: The FSHR antagonists of the invention have pIC50 values higher than 6 in said assay. The preferred compounds of the invention have pIC50 values higher than 8.
# Antagonistic activity of the compounds at the human FSH receptor was determined in Chinese Hamster Ovary (CHO) cells stably transfected with the human FSH receptor and cotransfected with a cAMP responsive element (CRE)/promotor directing the expression of a firefly luciferase reporter gene. […] The cells (7,500 cells/well of a 384 well plate) were incubated in Dulbecco′ minimal essential F12 modified medium (Invitrogen), supplemented with 1 μg/ml bovine insulin, 5 μg/ml human apo-transferrin, 100 U/ml penicillin G and 100 μg/ml streptomycin with the test compounds (concentration between 0.316 nM and 10.0 μM) in duplicate together with […] (which, at this concentration in the absence of test compound, induces 80% of the maximal luciferase stimulation) in a humidified atmosphere (95%) at 5-7% CO2 and 37° C. The final concentration of DMSO was 1%. After 4 hours of incubation, plates were allowed to adjust to room temperature for 1 hour. Then, SteadyLite (Perkin Elmer) solution was added to the wells and cells were allowed to lyse for at least 1 hour at room temperature. Subsequently, luciferase activity was measured in a luminescence counter. The signal is expressed as counts per second (cps). The IC50 (concentration of test compound causing half-maximal (50%) inhibition of the maximally attainable inhibition of the luciferase stimulation by the compound) and efficacy of the compounds were determined using the software program MathIQ (version 2.3, ID Business Solutions Limited).
row,SMILES,IC50 [nM]
1,"COc1cc(OCc2ccccc2)cc(C(=O)NCC2CCN(c3ccnc(-c4cccc(-n5cccn5)c4)n3)CC2)c1 [Example 11, N-((1-(2-(3-(1H-pyrazol-1-yl)phenyl)pyrimidin-4-yl)piperidin-4-yl)methyl)-3-(benzoxy)-5-methoxybenzamide]",10 to 100
2,"COc1cc(OCc2ccccc2)cc(C(=O)NCC2CCN(c3ncnc(-c4cccc(-c5ccccn5)c4)n3)CC2)c1 [Example 12B, 3-(benzoxy)-5-methoxy-N-((1-(4-(3-(pyridin-2-yl)phenyl)-1,3,5-triazin-2-yl)piperidin-4-yl)methyl)benzamide]",10 to 100
3,"COc1cc(OCc2ccc(F)cc2)cc(C(=O)NCC2CCN(c3ccnc(-c4cccc(-n5cccn5)c4)n3)CC2)c1 [Example 14, N-((1-(2-(3-(1H-pyrazol-1-yl)phenyl)pyrimidin-4-yl)piperidin-4-yl)methyl)-3-(4-fluorobenzoxy)-5-methoxybenzamide]",10 to 100
4,"COc1cc(OCC2CC2)cc(C(=O)NCC2CCN(c3ccnc(-c4cccc(-n5cccn5)c4)n3)CC2)c1 [Example 15A, N-((1-(2-(3-(1H-pyrazol-1-yl)phenyl)pyrimidin-4-yl)piperidin-4-yl)methyl)-3-(cyclopropylmethoxy)-5-methoxybenzamide]",< 10
5,"COc1cc(OCc2cc(C)on2)cc(C(=O)NCC2CCN(c3ccnc(-c4cccc(-n5cccn5)c4)n3)CC2)c1 [Example 15B, N-((1-(2-(3-(1H-pyrazol-1-yl)phenyl)pyrimidin-4-yl)piperidin-4-yl)methyl)-3-methoxy-5-((5-methylisoxazol-3-yl)methoxy)benzamide]",< 10
6,"COc1cc(OCCCO)cc(C(=O)NCC2CCN(c3ccnc(-c4cccc(-n5cccn5)c4)n3)CC2)c1 [Example 15C, N-((1-(2-(3-(1H-pyrazol-1-yl)phenyl)pyrimidin-4-yl)piperidin-4-yl)methyl)-3-(3-hydroxypropoxy)-5-methoxybenzamide]",10 to 100
7,"COCCOc1cc(OC)cc(C(=O)NCC2CCN(c3ccnc(-c4cccc(-n5cccn5)c4)n3)CC2)c1 [Example 15D, N-((1-(2-(3-(1H-pyrazol-1-yl)phenyl)pyrimidin-4-yl)piperidin-4-yl)methyl)-3-methoxy-5-(2-methoxyethoxy)benzamide]",10 to 100
8,"COc1cc(OCC2CC2)cc(C(=O)NCC2CCN(c3ncnc(-c4cccc(-n5cccn5)c4)n3)CC2)c1 [Example 17A, N-((1-(4-(3-(1H-pyrazol-1-yl)phenyl)-1,3,5-triazin-2-yl)piperidin-4-yl)methyl)-3-(cyclopropylmethoxy)-5-methoxybenzamide]",< 10
9,"COc1cc(OCC2CCOCC2)cc(C(=O)NCC2CCN(c3ncnc(-c4cccc(-n5cccn5)c4)n3)CC2)c1 [Example 17B, N-((1-(4-(3-(1H-pyrazol-1-yl)phenyl)-1,3,5-triazin-2-yl)piperidin-4-yl)methyl)-3-methoxy-5-((tetrahydro-2H-pyran-4-yl)methoxy)benzamide]",10 to 100
10,COc1cc(OCc2ccoc2)cc(C(=O)NCC2CCN(c3ncnc(-c4cccc(-n5cccn5)c4)n3)CC2)c1 [Example 17C],10 to 100
11,"CNC(=O)COc1cc(OC)cc(C(=O)NCC2CCN(c3ncnc(-c4cccc(-n5cccn5)c4)n3)CC2)c1 [Example 17D, N-((1-(4-(3-(1H-pyrazol-1-yl)phenyl)-1,3,5-triazin-2-yl)piperidin-4-yl)methyl)-3-methoxy-5-(2-(methylamino)-2-oxoethoxy)benzamide]",10 to 100
12,"COc1cc(OC)cc(C(=O)NCC2CCN(c3ccnc(-c4cccc(-c5ccn[nH]5)c4)n3)CC2)c1 [Example 18, N-((1-(2-(3-(1H-pyrazol-5-yl)phenyl)pyrimidin-4-yl)piperidin-4-yl)methyl)-3,5-dimethoxybenzamide]",10 to 100
13,"COc1cc(OCC2CC2)cc(C(=O)NCC2CCN(c3nc(-c4cccc(C#N)c4)ncc3F)CC2)c1 [Example 19B, N-((1-(2-(3-cyanophenyl)-5-fluoropyrimidin-4-yl)piperidin-4-yl)methyl)-3-(cyclopropylmethoxy)-5-methoxybenzamide]",10 to 100
14,"COc1cc(OCC2CC2)cc(C(=O)NCC2CCN(c3nc(-c4cccc(-c5ccn[nH]5)c4)ncc3F)CC2)c1 [Example 19C, N-((1-(2-(3-(1H-pyrazol-5-yl)phenyl)-5-fluoropyrimidin-4-yl)piperidin-4-yl)methyl)-3-(cyclopropylmethoxy)-5-methoxybenzamide]",< 10
15,"COc1cc(OCC2CC2)cc(C(=O)NCC2CCN(c3ccnc(-c4ccc5[nH]ncc5c4)n3)CC2)c1 [Example 19E, N-((1-(2-(1H-indazol-5-yl)pyrimidin-4-yl)piperidin-4-yl)methyl)-3-(cyclopropylmethoxy)-5-methoxybenzamide]",10 to 100
16,"COC(=O)c1cnc(-c2cccc(-n3cccn3)c2)nc1N1CCC(CNC(=O)c2cc(OC)cc(OC)c2)CC1 [Example 21B, methyl 2-(3-(1H-pyrazol-1-yl)phenyl)-4-(4-((3,5-dimethoxybenzamido)methyl)piperidin-1-yl)pyrimidine-5-carboxylate]",10 to 100
17,"COc1cc(OCCO)cc(C(=O)NCC2CCN(c3nc(-c4cccc(-c5cc[nH]n5)c4)ncc3F)CC2)c1 [Example 22, N-((1-(2-(3-(1H-pyrazol-3-yl)phenyl)-5-fluoropyrimidin-4-yl)piperidin-4-yl)methyl)-3-(2-hydroxyethoxy)-5-methoxybenzamide]",10 to 100
18,"COCCCOc1cc(OC)cc(C(=O)NCC2CCN(c3nc(-c4cccc(-c5cc[nH]n5)c4)ncc3F)CC2)c1 [Example 23A, N-((1-(2-(3-(1H-pyrazol-3-yl)phenyl)-5-fluoropyrimidin-4-yl)piperidin-4-yl)methyl)-3-methoxy-5-(3-methoxypropoxy)benzamide]",10 to 100
19,"C#CCOc1cc(OC)cc(C(=O)NCC2CCN(c3nc(-c4cccc(-c5cc[nH]n5)c4)ncc3F)CC2)c1 [Example 23C, N-((1-(2-(3-(1H-pyrazol-3-yl)phenyl)-5-fluoropyrimidin-4-yl)piperidin-4-yl)methyl)-3-methoxy-5-(prop-2-ynoxy)benzamide]",10 to 100
20,"COc1cc(OCC2CC2)cc(C(=O)NCC2CCN(c3nc(-c4cccc(-n5ccnn5)c4)ncc3F)CC2)c1 [Example 28C, N-((1-(2-(3-(1H-1,2,3-triazol-1-yl)phenyl)-5-fluoropyrimidin-4-yl)piperidin-4-yl)methyl)-3-(cyclopropylmethoxy)-5-methoxybenzamide]",10 to 100
21,"COc1cc(OCC(F)(F)F)cc(C(=O)NCC2CCN(c3ncnc(-c4cccc(C#N)c4)n3)CC2)c1 [Example 30C, N-((1-(4-(3-cyanophenyl)-1,3,5-triazin-2-yl)piperidin-4-yl)methyl)-3-methoxy-5-(2,2,2-trifluoroethoxy)benzamide]",10 to 100
22,"COc1cc(OCC(F)(F)F)cc(C(=O)NCC2CCN(c3ncnc(-c4cccc(C#N)c4)n3)CC2)c1 [Example 30D, N-((1-(4-(3-cyanophenyl)-1,3,5-triazin-2-yl)piperidin-4-yl)methyl)-3-methoxy-5-(2,2,2-trifluoroethoxy)benzamide]",< 10
23,"COc1cc(OCC2CC2)cc(C(=O)NCC2CCN(c3ccnc(-c4cccc(C(=O)Nc5ccn(C)n5)c4)n3)CC2)c1 [Example 32C, 3-(cyclopropylmethoxy)-5-methoxy-N-((1-(2-(3-(1-methyl-1H-pyrazol-3-ylcarbamoyl)phenyl)pyrimidin-4-yl)piperidin-4-yl)methyl)benzamide]",< 10
24,"COc1cc(OCC2CC2)cc(C(=O)NCC2CCN(c3ccnc(-c4cccc(C(=O)NC(C)(C)C)c4)n3)CC2)c1 [Example 32F, N-((1-(2-(3-(tert-butylcarbamoyl)phenyl)pyrimidin-4-yl)piperidin-4-yl)methyl)-3-(cyclopropylmethoxy)-5-methoxybenzamide]",10 to 100
25,"COc1cc(OCC2CC2)cc(C(=O)NCC2CCN(c3ncnc(-c4cccc(C(=O)NCC(F)F)c4)n3)CC2)c1 [Example 32G, 3-(cyclopropylmethoxy)-N-((1-(4-(3-(2,2-difluoroethylcarbamoyl)phenyl)-1,3,5-triazin-2-yl)piperidin-4-yl)methyl)-5-methoxybenzamide]",10 to 100

# Reference: US8993757B2, “N-piperidin-4-yl derivatives” (Merck Sharp & Dohme B.V., priority 2011, dated 2015)
